In patent US9790252B2, “2-fluorinated riboses and arabinoses and methods of use and synthesis” (CORNELL UNIVERSITY, priority 2009, dated 2017):

Tests used:
HEK293 and Neuro2A cells = experiment: Immucillin-H effects on β-ara-Cl-NR toxicity (MTT); type: cell-based; conditions: 10 μM ImmH with 5-100 μM β-ara-Cl-NR, 12 hours
Protocol: We speculated that like NR, the chloro derivatives might degrade in cells by action of an enzyme that converts it to ribose-1-phosphate. This enzyme is called purine nucleoside phosphorylase (PNP). Immucillin-H (gift of Schramm lab) is a potent inhibitor of PNP. […] Assay: • 1. HEK293 and Neuro2A cells were seeded in 96-well plate at a density of 25,000 cells/well the day before the experiment starts; • 2. After the cells reach 50˜60% confluency, media was taken out, and 100 μL of fresh media was added to each well; • 3. β-ara-Cl-NR (black) and ImmH (bold) were plated according to the following Table 12: • 4. After 12 hours' incubation at 37° C., the media was taken out, 100 μL of fresh media was added to each well along with 20 μL of 5 mg/mL of MTT solution (in PBS); • 5. After 2 hours' incubation at 37° C., media was taken out and 100 μL of DMSO was added to each well, the plate was mixed on shaker for 5 mins; • 6. Absorbance was measured at 570 nm.

HEK293 cells = experiment: Toxicity to HEK293 cells (MTT); type: cell-based; conditions: for 100 μM absorbance / 100 μM relative viability: HEK293, 100 μM; for 100 μM absorbance / 100 μM relative viability / 500 μM absorbance / 500 μM relative viability: 12 hours; for 100 μM absorbance / 500 μM absorbance: MTT 1.5 hours, 570 nm; for 100 μM relative viability / 500 μM relative viability: control = 1; for 500 μM absorbance / 500 μM relative viability: HEK293, 500 μM; for EC50: 2′-deoxy-2′-fluoro-nucleosides and nucleotides
Protocol: 1. HEK293 cells were seeded in 96-well plate at a density of 25,000 cells/well the day before the experiment starts;
2. After the cells reach 50˜60% confluency, media was taken out, and 100 μL of fresh media was added to each well;
3. F-derivatives were plated at 100 and 500 μM (in duplicates) concentrations;
4. After 12 hours' incubation at 37° C., the media was taken out, 100 μL of fresh media was added to each well along with 20 μL of 5 mg/mL of MTT solution (in PBS);
5. After 1.5 hours' incubation at 37° C., media was taken out and 100 μL of DMSO was added to each well, the plate was mixed on shaker for 5 mins;
(§1) Absorbance was measured at 570 nm.
(§2) Assay for Determining Toxicity to HEK293 and Neuro2A Cells • 1. HEK293 and Neuro2A cells were seeded in 96-well plate at a density of 25,000 cells/well the day before the experiment starts; • 2. After the cells reach 50˜60% confluency, media was taken out, and 100 μL of fresh media was added to each well; • 3. Cl-derivatives were plated at 100 and 500 μM (in duplicates) concentrations; • 4. After 12 hours' incubation at 37° C., the media was taken out, 100 μL of fresh media was added to each well along with 20 μL of 5 mg/mL of MTT solution (in PBS); • 5. After 2 hours' incubation at 37° C., media was taken out and 100 μL of DMSO was added to each well, the plate was mixed on shaker for 5 mins; • 6. Absorbance was measured at 570 nm.

Neuro2A cells = experiment: Toxicity to Neuro2A cells (MTT); type: cell-based; conditions: for 100 μM absorbance / 100 μM relative viability / 500 μM absorbance / 500 μM relative viability: 12 hours; for 100 μM absorbance / 500 μM absorbance: MTT 1.5 hours, 570 nm; for 100 μM relative viability / 500 μM relative viability: control = 1; for EC50: 2′-deoxy-2′-fluoro-nucleosides and nucleotides
Protocol: 6. Neuro2A cells were seeded in 96-well plate at a density of 25,000 cells/well the day before the experiment starts;
7. After the cells reach 50˜60% confluency, media was taken out, and 100 μL of fresh media was added to each well;
8. […]
9. After 12 hours' incubation at 37° C., the media was taken out, 100 μL of fresh media was added to each well along with 20 μL of 5 mg/mL of MTT solution (in PBS);
10. After 1.5 hours' incubation at 37° C., media was taken out and 100 μL of DMSO was added to each well, the plate was mixed on shaker for 5 mins;
as §1
as §2, with “Cl-derivatives were plated at 100 and 500 μM (in duplicates) concentrations; • 4.” left out

[1] = molecular target: T1, cell developmental protein 38 (CD38) (Homo sapiens, UniProt P28907); conditions: mechanism-based inhibitor; previous studies (Refs. 10, 12); read-out: apparent Ki; cited from earlier work
T1 sequence (P28907 1-300): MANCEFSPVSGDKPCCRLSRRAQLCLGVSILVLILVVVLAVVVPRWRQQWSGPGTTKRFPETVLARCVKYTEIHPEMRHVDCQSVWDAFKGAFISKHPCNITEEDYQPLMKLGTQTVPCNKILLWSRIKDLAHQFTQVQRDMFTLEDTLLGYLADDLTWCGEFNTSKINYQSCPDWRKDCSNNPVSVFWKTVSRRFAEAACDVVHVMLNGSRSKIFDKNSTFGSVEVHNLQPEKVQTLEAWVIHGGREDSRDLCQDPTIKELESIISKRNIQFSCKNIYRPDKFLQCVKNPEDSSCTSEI

SirT2 = molecular target: T2, SirT2 (Homo sapiens, UniProt Q8IXJ6); experiment: SirT2 activity assay (HPLC of 2′- and 3′-AADPR); type: biochemical; conditions: 800 μM NAD+, 500 μM H3 peptide, pH 7.5
T2 sequence (Q8IXJ6 1-389): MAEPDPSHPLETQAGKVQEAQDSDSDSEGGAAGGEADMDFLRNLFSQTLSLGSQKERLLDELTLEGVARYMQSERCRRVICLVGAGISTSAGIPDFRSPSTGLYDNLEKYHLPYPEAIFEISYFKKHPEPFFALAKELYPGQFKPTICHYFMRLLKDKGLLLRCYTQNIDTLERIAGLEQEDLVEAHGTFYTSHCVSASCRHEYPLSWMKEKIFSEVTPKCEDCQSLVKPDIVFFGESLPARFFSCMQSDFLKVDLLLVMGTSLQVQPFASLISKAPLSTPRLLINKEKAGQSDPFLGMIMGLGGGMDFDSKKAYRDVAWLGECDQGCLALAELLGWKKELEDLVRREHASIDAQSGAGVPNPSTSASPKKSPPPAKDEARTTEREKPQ
Protocol: Reactions containing 800 μM NAD^+, 500 μM H3 peptide, and 100 mM phosphate buffer at pH 7.5, with varying concentrations of 2′-deoxy-2′-fluoro-nucleosides or nucleotides were initiated by addition of SirT2 enzyme to a concentration of 16.6 μM. Reactions were incubated for 45 mins at 37° C. and quenched by addition of trifluoroacetic acid to pH 2. After centrifugation to remove precipitates, reactions were injected on HPLC for activity analysis. Production of 2′- and 3′-AADPR were analyzed at 260 nm.
SirT2 Activity Assay: Reactions containing 800 μM NAD^+, 500 μM H3 peptide, and 100 mM phosphate buffer at pH 7.5, with varying concentrations of 2′-deoxy-2′-chloro-nucleosides were initiated by addition of SirT2 enzyme to a concentration of 16.6 μM. Reactions were incubated for 45 mins at 37° C. and quenched by addition of trifluoroacetic acid to pH 2. After centrifugation to remove precipitates, reactions were injected on HPLC for activity analysis. Production of 2′- and 3′-AADPR were analyzed at 260 nm.

SirT1 = molecular target: T3, SirT1 (Homo sapiens, UniProt Q96EB6); experiment: SirT1 activity assay (HPLC of 2′- and 3′-AADPR); type: biochemical; conditions: 200 μM NAD+, 100 μM JB12 peptide, pH 7.5, 30 mins at 37° C.
T3 sequence (Q96EB6 1-747): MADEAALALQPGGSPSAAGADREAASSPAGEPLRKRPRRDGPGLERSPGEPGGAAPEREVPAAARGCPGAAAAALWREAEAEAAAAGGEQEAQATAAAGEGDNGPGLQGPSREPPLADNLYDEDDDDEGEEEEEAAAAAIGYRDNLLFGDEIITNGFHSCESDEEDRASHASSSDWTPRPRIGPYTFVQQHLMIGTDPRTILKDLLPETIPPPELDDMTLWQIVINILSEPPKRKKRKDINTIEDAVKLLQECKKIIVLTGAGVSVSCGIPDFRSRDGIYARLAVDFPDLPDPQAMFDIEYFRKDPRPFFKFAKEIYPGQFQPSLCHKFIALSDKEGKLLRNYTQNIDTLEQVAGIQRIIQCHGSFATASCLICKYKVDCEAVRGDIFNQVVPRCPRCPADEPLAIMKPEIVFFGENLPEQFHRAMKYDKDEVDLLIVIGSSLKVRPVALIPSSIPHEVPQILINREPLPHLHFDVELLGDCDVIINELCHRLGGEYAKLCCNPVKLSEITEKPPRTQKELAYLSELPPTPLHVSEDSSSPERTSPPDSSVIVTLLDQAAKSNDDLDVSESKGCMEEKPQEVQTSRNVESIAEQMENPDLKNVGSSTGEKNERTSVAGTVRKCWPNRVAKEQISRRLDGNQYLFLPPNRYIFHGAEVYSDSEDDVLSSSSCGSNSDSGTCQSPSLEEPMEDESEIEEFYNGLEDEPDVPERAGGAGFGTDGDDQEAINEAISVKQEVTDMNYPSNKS
Protocol: Reactions containing 200 μM NAD^+, 100 μM JB12 peptide, and 100 mM phosphate buffer at pH 7.5, with varying concentrations of 2′-deoxy-2′-fluoro-nucleosides or nucleotides were initiated by addition of SirT1 enzyme to a concentration of 12.9 μM. Reactions were incubated for 30 mins at 37° C. and quenched by addition of trifluoroacetic acid to pH 2. After centrifugation to remove precipitates, reactions were injected on HPLC for activity analysis. Production of 2′- and 3′-AADPR were analyzed at 260 nm.
SirT1 Activity Assay: Reactions containing 200 μM NAD^+, 100 μM JB12 peptide, and 100 mM phosphate buffer at pH 7.5, with varying concentrations of 2′-deoxy-2′-chloro-nucleosides were initiated by addition of SirT1 enzyme to a concentration of 12.9 μM. Reactions were incubated for 30 mins at 37° C. and quenched by addition of trifluoroacetic acid to pH 2. After centrifugation to remove precipitates, reactions were injected on HPLC for activity analysis. Production of 2′- and 3′-AADPR were analyzed at 260 nm.

SMILES: O=c1[nH]cnc2c([C@@H]3N[C@H](CO)[C@@H](O)[C@H]3O)c[nH]c12 [Immucillin-H]
- effect of PNP inhibition on β-ara-Cl-NR toxicity (HEK293 and Neuro2A cells): largely incapable of preventing this toxicity

SMILES: NC(=O)c1ccc[n+]([C@@H]2O[C@H](COP(=O)([O-])O)C(O)C2F)c1 (stereo partly drawn) [ara-F-NMN, 2′-deoxy-2′-fluoro-arabino-nicotinamide mononucleotide]
- 100 μM absorbance (HEK293 cells): 1.267
- 100 μM relative viability (HEK293 cells): 0.5574
- 500 μM absorbance (HEK293 cells): 0
- 500 μM relative viability (HEK293 cells): 0
- EC50 (HEK293 cells; HEK293): 88 µM
- 100 μM absorbance (Neuro2A cells): 2.126
- 100 μM relative viability (Neuro2A cells): 0.874
- 500 μM absorbance (Neuro2A cells): 0.0143
- 500 μM relative viability (Neuro2A cells): 0.006
- EC50 (Neuro2A cells): 164 µM
- Ki [1]: 0.061 µM
- SirT2 inhibition (in words) (SirT2): no inhibition

SMILES: NC(=O)c1ccc[n+]([C@@H]2O[C@H](COP(=O)([O-])OP(=O)(O)OC[C@H]3O[C@@H](n4cnc5c(N)ncnc54)[C@H](O)[C@@H]3O)[C@@H](O)C2(F)F)c1 [gem-diF-NAD, 2′-deoxy-2′,2′-difluoro-NAD^+]
- 100 μM absorbance (HEK293 cells): 1.797
- 100 μM relative viability (HEK293 cells): 0.7905
- 500 μM absorbance (HEK293 cells): 1.556
- 500 μM relative viability (HEK293 cells): 0.6844
- EC50 (HEK293 cells; Homo sapiens, HEK293, HEK293): 1130 µM
- 100 μM absorbance (Neuro2A cells): 1.5765
- 100 μM relative viability (Neuro2A cells): 0.648
- 500 μM absorbance (Neuro2A cells): 1.1916
- 500 μM relative viability (Neuro2A cells): 0.49
- EC50 (Neuro2A cells; Mus musculus, N2a): 400 µM
- Ki (SirT1): 60 µM
